# Source: patent US20060177374A1, “Treatment of cancer with active vitamin D compounds in combination with radiotherapeutic agents and treatments” (Novacea, Inc., priority 2003, published 2006)
# Key:
# [1] = in vivo; cited from earlier work
# [2] = Solubility study of calcitriol in each formulation (light microscope); format: physicochemical; details: heated to 50° C., cooled to room temperature, highest concentration tested
# Protocol: To further assess the formulations of calcitriol, a solubility study was conducted to evaluate the amount of calcitriol soluble in each formulation. Calcitriol concentrations from 0.1 to 0.6 μg calcitriol/mg formulation were prepared by heating the formulations to 50° C. followed by addition of the appropriate mass of calcitriol. The formulations were then allowed to cool to room temperature and the presence of undissolved calcitriol was determined by a light microscope with and without polarizing light. For each formulation, calcitriol was soluble at the highest concentration tested, 0.6 μg calcitriol/mg formulation.
compound,measurement,setting,value
C=C1/C(=C\C=C2/CCC[C@]3(C)C([C@H](C)CC#CC(C)(C)O)=CC[C@@H]23)C[C@@H](O)C[C@@H]1O [Ro23-7553],Hypercalcemic effect compared to calcitriol,[1],reduced hypercalcemic effect
"C=C1/C(=C\C=C2/CCC[C@]3(C)[C@@H]([C@H](C)CCCC(C)(C)O)CC[C@@H]23)C[C@@H](O)C[C@@H]1O [calcitriol, 1α,25-dihydroxyvitamin D3]",Calcitriol soluble in formulation,[2],≥ 0.6 μg calcitriol/mg formulation
